Reference: US9266904B2, “6-bridged heteroaryldihydropyrimidines for the treatment and prophylaxis of hepatitis B virus infection” (priority 2013, dated 2016)
Converted amounts (≈) assume the structure as drawn. Where two headings read alike, the source gives them in different places.

Tests used:
[1] = Cytotoxicity (CCK-8 cell viability) and selectivity index; format: cell-based, human; conditions: human, HepDE19 cells; cytotoxicity, concentration resulting in death of 50% of host cells
Source text: (§1) HepG2.2.15 and HepDE19 are stably-transfected cell lines containing the HBV genome. Both cell lines are derived from the hepatoblastoma cell line Hep G2 (American Type Culture Collection, ATCC® HB-8065™) by the published procedures described in references: M A Selles et al. Proc. Natl. Acad. Sci. USA 1987, 84, 1005-1009 and H Guo et al. Journal of Virology 2007, 81, 12472-12484, respectively. Both cell lines were maintained in Dulbecco's modified Eagle's medium (DMEM)-F12 medium supplemented with 10% fetal bovine serum, 100 U/mL penicillin, 100 μg/mL streptomycin, and 0.5 mg/mL of G418.
(§2) In a cell culture model, apparent antiviral activity of a compound can be the result of host cell death after exposure to the compound. To determine whether the anti-HBV effect of a test compound is due to cytotoxicity, HepDE19 cells were seeded into 96-well plates (5×10^3 cells per well) and treated with compounds as described above for EC50 determination. Five days after treatment, cell viability was measured by addition of 20 μL of CCK-8 reagent. Two hours after incubation at 37° C., the absorbance at wavelengths of 450 nm and 630 nm (OD450 and OD630) was recorded by a plate reader. The concentration results in the death of 50% of the host cells (CC50) of each compound was determined (See Table 5).

HepDE19 cells = test: as above; format: cell-based, human; conditions: CC50 value/EC50 value
Source text: as §1, §2

[2] = Human microsomal clearance assay; format: in vitro ADME
In short: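 Liver microsomes (0.5 mg/mL protein) were incubated with 1 μM compound at 37 °C, pH 7.4 phosphate, with an NADPH-regenerating system. Samples at 0-30 min were quenched and measured by LC-MS/MS for parent loss. No-NADPH controls were included.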

[3] = Lyophilisation solubility assay (Lysa); format: physicochemical; conditions: thermodynamic from solid
In short: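 DMSO was evaporated from 10 mM stocks, and residues were taken up in 0.05 M phosphate buffer pH 6.5, stirred 1 h, shaken 2 h and left overnight. Filtrates were quantified by UV or HPLC-UV against a four-point calibration, in duplicate. Values are in μg/ml, with a lower-bound value when >80% dissolved.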

[4] = system: HBV replication in HepG2.2.15 cells; test: Anti-HBV activity in vitro in HepG2.2.15 cells (extracellular HBV DNA by qPCR); format: cell-based; conditions: Hepatitis B virus, HepG2.2.15, Anti-HBV activity in HepG2.2.15 cells; read-out: EC50
In short: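 Constitutively HBV-producing HepG2.2.15 cells were seeded overnight at 37 °C, then treated with half-log serial dilutions of compound (0.5% DMSO final) for five days. Supernatant HBV DNA was extracted and quantified by qPCR; EC50 is the concentration inhibiting HBV replication by 50%.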

[5] = aqueous buffer, 0.05 M phosphate buffer (pH 6.5), reported as bigger than the value if more than 80% of the sample is in solution, read-out: Lysa

SMILES	CC50 at 5 days [1] [µM]	Selectivity index (CC50/EC50) (HepDE19 cells)	CLh ([2]; human, 1 μM, pH 7.4) [mL/min/kg]	solubility thermodynamic ([3]; pH 6.5, aqueous buffer) [µg/mL]	EC50 [4] [nM]	CLh ([2]; human microsomal clearance) [mL/min/kg]	solubility thermodynamic [3, 5] [µg/mL]
COC(=O)C1=C(CN2C3CC(F)(F)C2C[C@@](O)(CC(=O)O)C3)NC(c2nccs2)=N[C@H]1c1ccc(F)cc1Cl (single isomer, unassigned) [Example 116]	> 100	>13699	2.6	495 (≈ 846 µM)	7.3	–	–
COC(=O)C1=C(CN2C3CC(F)(F)C2C[C@@](O)(CC(=O)O)C3)NC(c2nccs2)=N[C@@H]1c1ccc(F)c(F)c1C (single isomer, unassigned) [Example 118]	45	8960	3.1	112 (≈ 192 µM)	5	–	–
COC(=O)C1=C(CN2C3CC(F)(F)C2C[C@@](O)(CC(=O)O)C3)NC(c2nccs2)=N[C@H]1c1cccc(F)c1Cl (single isomer, unassigned) [Example 120]	87	9083	0	317 (≈ 542 µM)	9.6	–	–
COC(=O)C1=C(CN2C3COCC2CC(O)(CO)C3)NC(c2nccs2)=N[C@H]1c1ccc(F)cc1Cl (stereo partly drawn) [Example 10, (R)-4-(2-Chloro-4-fluoro-phenyl)-6-(7-hydroxy-7-hydroxymethyl-3-oxa-9-aza-bicyclo[3.3.1]non-9-ylmethyl)-2-thiazol-2-yl-1,4-dihydro-pyrimidine-5-carboxylic acid methyl ester]	> 100	>11364	–	435 (≈ 810 µM)	8.8	–	–
COC(=O)C1=C(CN2C3COCC2CC(CC(=O)O)C3)NC(c2nccs2)=N[C@H]1c1ccc(F)cc1Br (stereo partly drawn) [Example 28, (R)-4-(2-Bromo-4-fluoro-phenyl)-6-(7-carboxymethyl-3-oxa-9-aza-bicyclo[3.3.1]non-9-ylmethyl)-2-thiazol-2-yl-1,4-dihydro-pyrimidine-5-carboxylic acid methyl ester]	> 100	>9804	0.6	> 655	15	–	–
COC(=O)C1=C(CN2C3COCC2c2c(n(C)[nH]c2=O)C3)NC(c2nccs2)=N[C@H]1c1ccc(F)cc1Cl (stereo partly drawn) [Example 33, (R)-4-(2-Chloro-4-fluoro-phenyl)-6-(5-methyl-3-oxo-10-oxa-4,5,12-triaza-tricyclo[6.3.1.0*2,6*]dodec-2(6)-en-12-ylmethyl)-2-thiazol-2-yl-1,4-dihydro-pyrimidine-5-carboxylic acid methyl ester]	> 100	>9091	–	100 (≈ 179 µM)	11	–	–
COC(=O)C1=C(CN2CC3(CO)CC2CO3)NC(c2nccs2)=N[C@H]1c1ccc(F)cc1Cl (some centres unmarked) [Example 39]	> 100	>5848	–	–	32	7.4	> 610
CCOC(=O)C1=C(CN2C3COCC2C(F)(F)[C@H](CC(=O)O)C3)NC(c2nccs2)=N[C@H]1c1ccc(F)c(F)c1C (stereo partly drawn) [Example 128, 2-[(7S)-9-[[(4S)-4-(3,4-difluoro-2-methyl-phenyl)-5-ethoxycarbonyl-2-thiazol-2-yl-1,4-dihydropyrimidin-6-yl]methyl]-6,6-difluoro-3-oxa-9-azabicyclo[3.3.1]nonan-7-yl]acetic acid]	35	14056	3.8	–	2.5	–	–
COC(=O)C1=C(CN2CC3(CNC(C)=O)CC2CO3)NC(c2nccs2)=N[C@H]1c1ccc(F)cc1Cl (stereo partly drawn) [Example 145, Methyl (4R)-6-[[4-(acetamidomethyl)-5-oxa-2-azabicyclo[2.2.1]heptan-2-yl]methyl]-4-(2-chloro-4-fluoro-phenyl)-2-thiazol-2-yl-1,4-dihydropyrimidine-5-carboxylate]	> 100	>5882	–	–	17	–	585 (≈ 1100 µM)
